Converted amounts (≈) assume the structure as drawn. “And” between values parts separate entries of the source, which are not always exact repeats. Equal entries are not always repeated.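 1) Cells in 96-well plates. 2) Compound, 48 h, 5 concentrations. 3) Linear interpolation between surrounding doses. 4) Unreached endpoint = highest concentration. GI50 is the concentration that inhibits growth by half. The concentration for full growth arrest is given as TGI.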 The source made the active and inactive calls. No stated cut-off is given here; in the data, active means GI50 below about 0.43 µM; inactive means the rest.
Assays:
Assay in all cases: inhibition of tumour cell growth, NCI panel, 48 h
[1] = system: MDA-N
[2] = system: DMS 114 small cell lung
[3] = system: SNB-78 CNS
[4] = system: M19-MEL melanoma
[5] = system: DLD-1 colon
[6] = system: LXFL 529 NSCLC
[7] = system: DMS 273 small cell lung
[8] = system: RXF-631 renal
[9] = system: KM20L2 colon

| Compound | TGI [1] [µM] | TGI [2] | TGI [3] | TGI [4] [µM] | TGI [5] | TGI [6] [µM] | TGI [7] | TGI [9] [µM] | other results |
| --- | --- | --- | --- | --- | --- | --- | --- | --- | --- |
| CC1(C)CCC(C)(C)c2cc(C(=O)Nc3ccc(C(=O)O)cc3)ccc21 | > 62.8 | – | – | – | – | – | – | – | – |
| N#Cc1ccc(-c2nc(C#N)c(N)o2)cc1 | > 10 | – | – | – | – | – | – | – | – |
| CC(C)c1ccc2nc3ccc(C(=O)NCCN(C)C)cn3c(=O)c2c1 | 31.8 | – | – | – | – | – | – | – | – |
| O=c1nc(-c2ccccc2)c2c3c(cccn13)CCC2 | – | > 100 µM | > 100 µM | > 100 | > 100 µM | > 100 | > 100 µM | – | – |
| CCc1ccccc1NC(=O)C(=O)C(C(=O)c1ccc(OC)cc1)c1ccc(OC)cc1 (configuration not stated) | – | > 100 µM | > 100 µM | – | > 100 µM | > 100 | > 100 µM | > 100 | TGI [8]: > 100 µM |
| COc1ccc(C2C(Cl)C(=O)N2n2cnc3ccccc3c2=O)cc1OC (configuration not stated) | – | > 100 µM | > 100 µM | > 100 | – | > 100 | > 100 µM | > 100 | – |
| COC(=O)c1nc(NN)[nH]c(=O)c1CCCCCc1c(C(=O)OC)[nH]c(NN)cc1=O | – | > 100 µM | > 100 µM | > 100 | > 100 µM | > 100 | > 100 µM | > 100 | – |
| CC1=C(C(=O)NC2CCCCC2)CC(C(=O)NC2CCCCC2)=C(C)N1 | > 100 | – | – | – | – | – | – | – | – |
| O=c1oc2ccccc2c(O)c1C=NC(=S)c1ccncc1 | > 100 | – | – | – | – | – | – | – | – |
| O=C1[C@@H](c2ccc(Cl)cc2)[C@H]2CC=C[C@H]2N1O | – | > 100 µM | > 100 µM | > 100 | > 100 µM | > 100 | > 100 µM | – | TGI [8]: > 100 µM |
| Nc1cc2c3c(cccc3c1)NC2=O | > 100 | – | – | – | – | – | – | – | – |
| COC(=O)C1=CCON(c2ccccc2)C1c1ccccc1 (configuration not stated) | – | > 100 µM | – | > 100 | > 100 µM | > 100 | > 100 µM | > 100 | – |
| CON(C)C(=O)C(C)NC(=O)OCc1ccccc1 (configuration not stated) | > 100 | – | – | – | – | – | – | – | – |
| CC1(C)O[C@H]2OC3CCC(=O)CC3(O)[C@H]2O1 (some centres not stated) | > 100 | > 100 µM | > 100 µM | > 100 | > 100 µM | – | – | – | – |
| CSc1nc2c(c(O)c(C)c(=O)n2C2OC(COC(C)=O)C(OC(C)=O)C(OC(C)=O)C2OC(C)=O)c(=O)n1C (configuration not stated) | – | > 100 µM | > 100 µM | – | > 100 µM | > 100 | > 100 µM | > 100 | TGI [8]: > 100 µM |
| CSc1ccc(/C=C2\CNC/C(=C\c3ccc(SC)cc3)C2=O)cc1 | – | 132 µM and 150 µg/mL | 150 µg/mL | – | > 371 µM and 150 µg/mL | 68.6 | 150 µg/mL | – | TGI [8]: 175 µM; outcome [9]: inactive; GI50 [2]: 54.1 µg/mL (≈ 147 µM); GI50 [3]: 28.8 µg/mL (≈ 78.3 µM); GI50 [5]: 45.1 µM and 142 µg/mL; GI50 [7]: 46.2 µg/mL (≈ 126 µM) |
| CC(C)N(C(=O)C12C3C4C1C1C2C3C41C(O)C(C)(C)C)C(C)C (configuration not stated) | – | > 50 µM | > 50 µM | > 50 | – | > 50 | > 50 µM | > 50 | – |
| CCC1(Br)C(=O)NC(=O)N(C2CC(O)C(CO)O2)C1N=[N+]=[N-] (configuration not stated) | – | > 100 µM | > 100 µM | > 100 | > 100 µM | > 100 | > 100 µM | > 100 | – |
| COc1ccc([C@H]2CC(=O)N3CCCC3N2)cc1 (some centres not stated) | – | > 100 µM | > 100 µM | > 100 | > 100 µM | > 100 | > 100 µM | > 100 | – |
| N#CC(C#N)SCc1ccccc1 | – | 60.1 µM | > 91.7 µM | > 100 | > 100 µM | > 100 | > 100 µM | 63.4 | – |
| Cc1cc(C)c2c(c1)CN1CN2Cc2cc(C)cc(C)c21 | – | – | 40.2 µM | 53.4 | 58.3 µM | > 100 | 37.2 µM | – | – |
| Nc1nc2c(ncn2Cc2ccccc2CCO)c(=O)[nH]1 | – | > 100 µM | – | > 100 | – | > 100 | > 100 µM | > 100 | TGI [8]: > 100 µM |
| CC1(C)C(=O)C(O)=CC2C1=CCC1C2(C)C(=O)CC2(C)C(C(C)(O)C(=O)CC(O)C(C)(C)O)C(O)CC12C (configuration not stated) | – | 45.9 µM | 25.9 µM | > 97.2 | > 74.6 µM | 17.4 | 9.61 µM | 42.4 | – |
| Nc1c(C(=O)Nc2ccc([As](=O)(O)O)cc2)cnc2nnnn12 | > 100 | – | – | – | – | – | – | – | – |
| CC12CC3(C)CC(C)(C1)CC(N=[N+]=[N-])(C2)C3 | – | > 100 µM | > 100 µM | > 100 | > 100 µM | > 100 | > 100 µM | – | TGI [8]: > 100 µM |
| Clc1ccccc1NN(Cc1ccccn1)c1ccccc1Cl | 36 | – | – | – | – | – | – | – | – |
| O=C(c1ccccc1)c1c(CC(O)c2cccnc2)n(C(=O)c2ccccc2)c2ccccc12 (configuration not stated) | – | 74.2 µM | – | 38.3 | – | – | 56.2 µM | 42 | – |

Reference: PubChem BioAssay (NCI)
